Source: patent US4822800A (Ortho Pharmaceutical Corporation, priority 1986, dated 1989)
“Also recorded” adds a separate entry of the source. Counter-ions that a name gives are not always drawn. Like-named read-outs stand apart in the source and are kept apart here.

Columns and labels:
adult mongrel dogs [1] = assay: acute in vivo cardiotonic activity in anesthetized dogs; set-up: species or system dog (adult mongrel); settings: for change in vivo at 0.1 mg/kg / change in vivo at 1.875 mg/kg / change in vivo at 3.75 mg/kg / change in vivo at 0.875 mg/kg / change in vivo at 8.75 mg/kg: Canis lupus familiaris, cardiotonic, relative to controls; for change in vivo at 0.1 mg/kg: dose 0.100 mg/kg intravenous; for change in vivo at 1.875 mg/kg: dose 1.875 mg/kg intravenous; for change in vivo at 3.75 mg/kg: dose 3.75 mg/kg intravenous; for change in vivo at 0.875 mg/kg: dose 0.875 mg/kg intravenous; for change in vivo at 8.75 mg/kg: dose 8.75 mg/kg intravenous
Method: The acute in vivo cardiotonic activity of compounds prepared according to the present invention was determined according to a modification of the procedure described by Alousi et al., Circ. Res., 45, 666 (1979).
In particular, adult mongrel dogs were anesthetized with sodium pentobarbital and were artificially respired. Arterial pressure was monitored via a femoral artery, and the pulse pressure was used to trigger a cardiotachometer for heart rate. Left ventricular pressure was determined with a Millar catheter, and dP/dt (the change in ventricular pressure with time) was derived. Cardiac output was determined by measuring ascending aortic blood flow with an electromagnetic flow probe, and myocardial contractile force was measured with a Walton Brodie strain gauge sutured to the right ventricle. Lead II EKG was also recorded.
A standard dose (10 μg/kg/min) of dopamine was administered to assess myocardial responsiveness.
Compounds of the invention were administered by intravenous infusion or bolus […] administration, and the effects on cardiovascular parameters were determined.
Dose related effects of the test compound on blood pressure (BP), heart rate (HR), maximum change in left ventricular pressure with time (dP/dt max),% change in cardiac force (CF) and the increase in mean arterial blood pressure relative to controls (MABP) were compared to pretreatment control values, expressed as a% change and rated for activity.

[2] = target: T1, Phosphodiesterase fraction III (Canis lupus familiaris, UniProt A0A8I3NYE0); assay: inhibition of phosphodiesterase fraction III activity; assay type: biochemical, canine (heart); settings: for IC50: cyclic AMP 0.10-1.0 uM, pH 7.4, canine heart enzyme; for phosphodiesterase fraction III inhibition (in words): summary of Table 5
T1 construct: isolated as an isozyme from the crude canine heart homogenate; from tissue; host or cells: canine heart (crude homogenate, ion exchange chromatography, third and last PDE peak)
T1 sequence (A0A8I3NYE0 1-1135): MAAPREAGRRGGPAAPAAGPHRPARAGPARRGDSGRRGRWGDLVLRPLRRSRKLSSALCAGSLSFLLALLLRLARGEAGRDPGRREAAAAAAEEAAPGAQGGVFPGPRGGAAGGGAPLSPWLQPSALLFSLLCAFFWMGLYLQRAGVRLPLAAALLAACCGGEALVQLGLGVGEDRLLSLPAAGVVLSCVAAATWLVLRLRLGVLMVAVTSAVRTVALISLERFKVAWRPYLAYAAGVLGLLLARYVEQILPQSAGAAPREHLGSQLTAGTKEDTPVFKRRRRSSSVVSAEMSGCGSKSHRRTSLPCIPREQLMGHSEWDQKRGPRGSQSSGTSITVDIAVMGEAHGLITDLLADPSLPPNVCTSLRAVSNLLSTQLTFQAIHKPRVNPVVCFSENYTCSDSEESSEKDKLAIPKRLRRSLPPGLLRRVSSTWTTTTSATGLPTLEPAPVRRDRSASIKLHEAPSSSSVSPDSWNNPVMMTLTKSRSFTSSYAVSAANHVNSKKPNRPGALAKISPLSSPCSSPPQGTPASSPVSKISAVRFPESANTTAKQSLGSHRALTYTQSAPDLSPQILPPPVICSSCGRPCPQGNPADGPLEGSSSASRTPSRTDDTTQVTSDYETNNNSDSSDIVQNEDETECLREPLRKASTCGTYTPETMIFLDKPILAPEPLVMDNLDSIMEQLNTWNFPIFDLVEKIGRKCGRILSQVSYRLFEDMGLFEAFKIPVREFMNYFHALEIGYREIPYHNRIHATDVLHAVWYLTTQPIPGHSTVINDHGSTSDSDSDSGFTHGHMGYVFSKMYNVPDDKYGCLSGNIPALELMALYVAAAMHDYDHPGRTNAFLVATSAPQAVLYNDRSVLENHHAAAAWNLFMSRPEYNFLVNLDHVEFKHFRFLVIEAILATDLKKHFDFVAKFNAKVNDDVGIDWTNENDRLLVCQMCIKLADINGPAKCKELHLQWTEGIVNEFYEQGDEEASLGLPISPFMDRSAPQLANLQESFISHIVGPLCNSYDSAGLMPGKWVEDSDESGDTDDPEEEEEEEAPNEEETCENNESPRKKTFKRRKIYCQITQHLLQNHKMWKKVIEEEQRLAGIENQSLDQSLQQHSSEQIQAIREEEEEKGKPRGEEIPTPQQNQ

adult mongrel dogs [3] = assay: renal vasodilating activity in anesthetized dogs; assay type: in vivo, dog (adult mongrel); settings: for change in vivo at 5 mg/kg / change in vivo at 13.9 mg/kg / change in vivo at up to 13.9 mg/kg: Canis lupus familiaris, renal vasodilator, relative to controls; for change in vivo at 5 mg/kg: dose 5.0 mg/kg intravenous; for change in vivo at 13.9 mg/kg / change in vivo at up to 13.9 mg/kg: dose 13.9 mg/kg intravenous
Method: Goldberg et al, J. Pharmacol. Exp. Ther., 163, 188 (1968), performed an investigation of the structural requirements for dopamine-like renal vasodilation of phenethylamines and apomorphine. The following procedure is a variation of the assay described in that report.
Adult mongrel dogs were anesthetized and surgically prepared for electromagnetic measurement of renal artery blood flow. A carotid artery was cannulated for measuring arterial blood pressure, and drugs were administered intravenously. Heart rate was monitored with a cardiotachometer. Renal vascular resistance was calculated as the ratio of mean arterial blood pressure/renal artery blood flow. Dopamine was infused intravenously at 3 μg/kg/min for ten minutes (at an infusion rate of about 1 ml/min) to determine responsiveness of each dog to renal dopamine receptor stimulation. Cumulative dose-response data were obtained by infusing a compound of this invention at progressively increasing (usually three-fold) infusion rates, each dose being infused for five minutes. The maximum % increase from pre-drug control in renal artery blood flow (or a decrease in renal vascular resistance) was determined for each infusion dose.
RBF values are percent change in renal blood flow. RVR values are percent change in renal vascular resistance. MABP and HR are percent changes in mean arterial blood pressure and heart rate, respectively, relative to controls.

[4] = read-out: MABP (mean arterial blood pressure)
[5] = read-out: dP/dt (maximum change left ventricular pressure with time)
[6] = read-out: RBF (renal blood flow)
[7] = read-out: RVR (renal vascular resistance)

Structure (SMILES) | change in vivo at 13.9 mg/kg (adult mongrel dogs [3]; read-out: HR (heart rate)) | change in vivo at 13.9 mg/kg (adult mongrel dogs [3]; [4]) | change in vivo at 13.9 mg/kg (adult mongrel dogs [3]; [6]) | change in vivo at up to 13.9 mg/kg (adult mongrel dogs [3]; [7]) | change in vivo at 0.875 mg/kg (adult mongrel dogs [1]; read-out: CF (cardiac force)) | change in vivo at 0.875 mg/kg (adult mongrel dogs [1]; read-out: HR (heart rate)) | change in vivo at 0.875 mg/kg (adult mongrel dogs [1]; [4]) | change in vivo at 0.875 mg/kg (adult mongrel dogs [1]; [5]) | other results
COc1cc2c(C)nc(O)c(C)c2cc1OC [AB] | – | – | – | – | – | – | – | – | change in vivo at 0.1 mg/kg (adult mongrel dogs [1]; read-out: CF (cardiac force)): 80%; change in vivo at 0.1 mg/kg (adult mongrel dogs [1]; read-out: HR (heart rate)): 15%; change in vivo at 0.1 mg/kg (adult mongrel dogs [1]; [4]): -4%; change in vivo at 0.1 mg/kg (adult mongrel dogs [1]; [5]): 48%; IC50 [2]: 8.3 µM; phosphodiesterase fraction III inhibition (in words) [2]: inhibit phosphodiesterase fraction III activity
COc1cc2c(CCl)nc(O)c(Cl)c2cc1OC [AD] | – | – | – | – | – | – | – | – | change in vivo at 5 mg/kg (adult mongrel dogs [3]; [6]): 16%; change in vivo at 5 mg/kg (adult mongrel dogs [3]; [7]): -32%; renal vasodilating activity (in words) (adult mongrel dogs [3]; summary of Table 4): renal vasodilating properties; change in vivo at 1.875 mg/kg (adult mongrel dogs [1]; read-out: CF (cardiac force)): 111%; change in vivo at 1.875 mg/kg (adult mongrel dogs [1]; read-out: HR (heart rate)): 21%; change in vivo at 1.875 mg/kg (adult mongrel dogs [1]; [4]): -3%; change in vivo at 1.875 mg/kg (adult mongrel dogs [1]; [5]): 106%; cardiotonic activity (in words) (adult mongrel dogs [1]; summary of Table 4): cardiotonic properties; IC50 [2]: 11 µM; phosphodiesterase fraction III inhibition (in words) [2]: inhibit phosphodiesterase fraction III activity; also recorded: phosphodiesterase fraction III inhibiting properties
Cc1nc(O)c(CCC(=O)O)c2cc(O)c(O)cc12 [Compound G, 4-β-Carboxyethyl-3,6,7-trihydroxy-1-methyl-3-isoquinoline Hydrobromide] | -3% | -5% | 11% | -14% | – | – | – | – | change in vivo at 3.75 mg/kg (adult mongrel dogs [1]; read-out: CF (cardiac force)): 82%; change in vivo at 3.75 mg/kg (adult mongrel dogs [1]; read-out: HR (heart rate)): 13%; change in vivo at 3.75 mg/kg (adult mongrel dogs [1]; [4]): -10%; change in vivo at 3.75 mg/kg (adult mongrel dogs [1]; [5]): 32%
COC(=O)CCc1c(O)nc(C)c2c(OC)c(OC)c(OC)cc12 [Compound J, 4-carbomethoxyethyl-3-hydroxy-6,7,8-trimethoxy-1-methylisoquinoline] | – | -1% | 18% | -23% | 22% | 8% | -4% | 20% | –
COC(=O)CCc1c(O)ncc2cc(OC)c(OC)cc12 [Compound Q, 4-(β-Carbomethoxyethyl)-3-hydroxy-6,7-dimethoxyisoquinoline] | – | – | 42% | -23% | 53% | 7% | -4% | 24% | –
COc1ccc2cc(O)ncc2c1OC [D] | 3% | -11% | 21% | -27% | – | – | – | – | change in vivo at 8.75 mg/kg (adult mongrel dogs [1]; read-out: CF (cardiac force)): 60%; change in vivo at 8.75 mg/kg (adult mongrel dogs [1]; read-out: HR (heart rate)): 13%; change in vivo at 8.75 mg/kg (adult mongrel dogs [1]; [4]): -7%; change in vivo at 8.75 mg/kg (adult mongrel dogs [1]; [5]): 34%
COc1cc2cc(O)nc(C)c2c(OC)c1OC [H] | 20% | -12% | 41% | -38% | 76% | 13% | -2% | 45% | –
CCc1nc(O)c(CCC(=O)OC)c2cc(OC)c(OC)cc12 [K] | – | – | 28% | -28% | 47% | 10% | -3% | 33% | –
COC(=O)C(C)Cc1c(O)nc(C)c2cc(OC)c(OC)cc12 (centres unmarked) [O] | – | – | 15% | -18% | – | – | – | – | change in vivo at 1.875 mg/kg (adult mongrel dogs [1]; read-out: CF (cardiac force)): 100%; change in vivo at 1.875 mg/kg (adult mongrel dogs [1]; read-out: HR (heart rate)): 21%; change in vivo at 1.875 mg/kg (adult mongrel dogs [1]; [4]): 0%; change in vivo at 1.875 mg/kg (adult mongrel dogs [1]; [5]): 67%
COC(=O)Cc1c(O)nc(C)c2cc(OC)c(OC)cc12 [W] | – | – | 64% | -62% | 42% | 6% | -1% | 28% | –
